According to BigSolDB 2.1:

O=C(O)c1cc(O)c(O)c(O)c1
solubility (mole fraction)
Conditions | 293.15 K | 298.15 K | 303.15 K | 308.15 K | 313.15 K | 318.15 K
in methanol | 0.0639 | 0.0672 | 0.07 | 0.0721 | 0.0755 | 0.0768
in water | 0.00101 | 0.00135 | 0.00171 | 0.00227 | 0.00289 | 0.0038
